Reference: patent publication US20250049836A1, “PRODRUGS OF DEOXYNUCLEOSIDES FOR TREATMENT OF MITOCHONDRIAL DISEASES CAUSED BY UNBALANCED NUCLEOTIDE POOLS” (UCB Biosciences, Inc., priority 2021, published 2025)

Legend:
[1] = system: dGK mutant fish; details: nucleoside supplementation (Munro, et al. 2019); cited from earlier work
[2] = system: fibroblasts from patients with DGUOK mutations; details: cited from earlier work
[3] = system: MPV17^−/− mice; experiment: qPCR measurements of mtDNA copy number in the liver of MPV17−/− mice; format: in vivo, mouse; details: treatment alone; summary statement
Description: • 2A. 2 litters from MPV17^−/− mouse (KO×KO) breeding pairs were used in the study. The experimental groups were set up as follows: • 1. - - - KO untreated (n=1) • 2. - - - KO treated with 109.35 mg/kg MT102C+104.2 mg/kg MT102G (n=3) • 3. - - - KO treated with 163.87 mg/kg MT103C+150.56 mg/kg MT103G (n=3) • 4. - - - KO treated with 75 mg/kg dC and 75 mg/kg dG (purchased from Sigma) (n=3) • 5. - - - KO treated with 144.9 mg/kg MT101G (n=2)
Treatment was started at day 7 and terminated at day 30. The treatment was performed by delivery into the oral cavity throughout the study. […] At day 30, animals were sacrificed and tissues collected. Liver, muscle, kidney, gut, heart and brain were flash frozen in liquid nitrogen. Blood was collected by heart puncture and plasma fractions stored at −80° C.
Results of qPCR measurements of mtDNA copy number in the liver tissue of treated and untreated mice are shown FIG. 7. • 2B. In order to compare results, WT (n=5), KO untreated (n=4) and KO treated with 20% MT101 (n=4) and 20% MT104 (n=4) from previous experiments were also included in the analysis. • 2C. Three other litters from KO x KO breeding pairs were used in a further study of nucleoside prodrug supplementation: • 1.—Litter 2 (L2): Born on Feb. 9, 2020 • 2.—Litter 3 (L3): Born on May 9, 2020 • 3.—Litter 4 (L4): Born on Aug. 9, 2020 […]
mtDNA copy number in liver was analyzed by RT-qPCR. […]

Nc1nc2c(ncn2[C@H]2C[C@H](O)[C@@H](CO)O2)c(=O)[nH]1 [dG, 2′-deoxyguanosine]
mtDNA levels in dGK mutant fish [1]: decreased mtDNA levels
mtDNA depletion after quiescence, previously demonstrated ([2]; 50 μM in cell culture medium): sufficient to prevent this depletion
mtDNA copy number ([2]; 50 μm added into culture broth (Camara, et al. 2014)): sufficient to increase the mtDNA copy number
mtDNA copy numbers in dGK or MPV17 deficiency disorders [3]: sufficient to increase mtDNA copy numbers
